# Reference: patent US20230219965A1 (KSQ Therapeutics, Inc., priority 2020, published 2023)
# Like-named read-outs stand apart in the source and are kept apart here.
# Legend:
# [1] = ADME solubility determination in PBS at pH 2.0 and pH 7.4; type: physicochemical; details: for solubility at 24 h: phosphate buffered saline, 25 °C, thermodynamic from solid
# Method: Certain Compounds of the Disclosure were assessed for ADME solubility at pH 2.0 and pH 7.4.
# Stock solutions were prepared by adding each compound to DMSO at a concentration of 10 mM. Samples were prepared by adding 50 μL of each stock solution to separate vials. The vials were loaded onto a 96-well rack and dried. 500 μL of Phosphate Buffered Saline (PBS) pH 7.4 or PBS pH 2.0 were added into each vial. The vials were then shaken at 25° C. and 1,100 rpm for 24 hours.
# After 24 hours, the vials were centrifuged at 3220 G and 25° C. for 30 minutes. The supernatant fluid was analyzed by LC-MS/MS against a standard of known concentration. The solubility of each sample was then calculated using the equation below: […]
# where DF is the dilution factor.
# [2] = biological target: USP1/UAF1 enzyme (Homo sapiens, UniProt O94782); assay: USP1/UAF1 deubiquitination assay (ubiquitin-rhodamine 110 substrate); type: biochemical; details: read-out: USP1 IC50 (Ub-Rho)
# Sequence of USP1/UAF1 enzyme (O94782 whole entry): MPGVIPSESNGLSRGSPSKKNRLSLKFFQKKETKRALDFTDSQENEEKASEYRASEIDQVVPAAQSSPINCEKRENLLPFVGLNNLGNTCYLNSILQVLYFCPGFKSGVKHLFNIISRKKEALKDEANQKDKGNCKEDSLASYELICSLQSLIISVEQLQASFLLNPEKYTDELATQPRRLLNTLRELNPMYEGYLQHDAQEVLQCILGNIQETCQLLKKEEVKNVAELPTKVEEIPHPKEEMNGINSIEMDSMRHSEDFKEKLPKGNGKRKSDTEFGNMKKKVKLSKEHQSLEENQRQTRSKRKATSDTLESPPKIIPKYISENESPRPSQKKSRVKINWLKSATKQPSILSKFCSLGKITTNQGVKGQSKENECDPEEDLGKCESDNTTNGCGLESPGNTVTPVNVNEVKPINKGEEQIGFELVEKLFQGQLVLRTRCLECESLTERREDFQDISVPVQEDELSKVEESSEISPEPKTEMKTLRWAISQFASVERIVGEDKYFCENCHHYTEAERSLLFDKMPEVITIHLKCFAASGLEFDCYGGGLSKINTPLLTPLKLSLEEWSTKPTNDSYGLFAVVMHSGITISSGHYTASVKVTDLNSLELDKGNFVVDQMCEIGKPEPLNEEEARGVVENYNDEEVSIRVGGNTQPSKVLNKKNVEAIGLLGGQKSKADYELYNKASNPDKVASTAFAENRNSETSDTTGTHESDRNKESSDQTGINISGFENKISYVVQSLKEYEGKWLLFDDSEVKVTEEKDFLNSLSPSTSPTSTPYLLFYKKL
# Sequence of USP1/UAF1 enzyme (Q8TAF3 whole entry partner): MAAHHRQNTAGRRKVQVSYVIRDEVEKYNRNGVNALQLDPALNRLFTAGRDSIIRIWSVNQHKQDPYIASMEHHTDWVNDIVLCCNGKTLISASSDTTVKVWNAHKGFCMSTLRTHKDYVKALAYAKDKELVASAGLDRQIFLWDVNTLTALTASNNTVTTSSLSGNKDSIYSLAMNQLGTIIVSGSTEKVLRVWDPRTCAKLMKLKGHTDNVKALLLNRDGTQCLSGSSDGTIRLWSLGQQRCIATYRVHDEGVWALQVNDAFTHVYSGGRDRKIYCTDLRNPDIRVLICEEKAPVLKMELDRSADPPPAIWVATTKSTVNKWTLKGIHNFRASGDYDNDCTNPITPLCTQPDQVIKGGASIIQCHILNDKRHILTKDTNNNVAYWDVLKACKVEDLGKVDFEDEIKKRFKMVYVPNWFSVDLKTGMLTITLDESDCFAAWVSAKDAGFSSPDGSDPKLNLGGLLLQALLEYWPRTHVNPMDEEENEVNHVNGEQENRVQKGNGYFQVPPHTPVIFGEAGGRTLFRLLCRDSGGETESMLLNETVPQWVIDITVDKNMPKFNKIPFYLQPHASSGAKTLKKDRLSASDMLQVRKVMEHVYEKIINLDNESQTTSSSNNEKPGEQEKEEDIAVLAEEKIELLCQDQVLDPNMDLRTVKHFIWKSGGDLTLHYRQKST
# Outline: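 0.05 nM USP1/UAF1 was preincubated 10 min with compounds (dose response from 10 μM) in 50 mM Tris-HCl pH 7.8, 0.5 mM EDTA, 0.01% BSA, 1 mM DTT, 0.01% Tween-20. 150 nM ubiquitin-rhodamine 110 started the reaction, read kinetically 30 min at Ex480/Em540; IC50 by four-parameter fit versus no-enzyme and DMSO controls.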
# [3] = Liver microsomal metabolic stability, human liver microsomes (HLM); details: human, liver microsomes
# [4] = system: Ub-PCNA levels in the nucleus of ES2 cells (USP1 activity); assay: ES2 Ub-PCNA immunofluorescence (IF) assay; type: cell-based; details: ES2 cells, 3 hours, Ub-PCNA immunofluorescence, read-out: USP1 IC50 (Ub-PCNA)
# Method: USP1 is a deubiquitinating enzyme that removes ubiquitin from mono-ubiquitinated Proliferating Cell Nuclear Antigen (Ub-PCNA). The levels of Ub-PCNA in the nucleus of cells can be used to assess the activity of USP1. An immunofluorescence assay can be established to monitor Ub-PCNA levels in the ovarian cancer cell line, ES2.
# An assay can be performed by first plating 5000 ES2 cells per well in black 96 well plates (Corning #3904) and then incubating overnight at 37° C. and 5% CO2. Compounds, resuspended in DMSO, can be added to the cells, to a final DMSO concentration of 0.3%. Plates can be incubated at 37° C. and 5% CO2 for 3 hours.
# Cells can be then fixed and stained by first removing the media from each plate and fixing the cells with −20° C. methanol for 5 minutes at room temperature. Fixation plates can be washed with Tris buffered saline with tween (Boston Bioproducts #IBB-855) 5 times for 5 minutes each. Plates can be blocked for 1 hour with 50 μl of Odyssey blocking buffer (Licor #327-50000) at room temperature with rocking. Block can be removed from all wells and 50 μl of primary antibody was added to each well. Ub-PCNA ab (Cell Signaling Technology #13439) can be diluted at 1:400 in Odyssey blocking buffer. Plates can be sealed and incubated overnight at 4° C. Primary antibodies can be removed from the plates and plates can be washed with Tris buffered saline with tween 5 times for 5 minutes. Plates can be stained for 1 hour at room temperature with rocking with 50 μl of secondary antibodies diluted 1:10,000 in Odyssey blocking buffer at room temperature (anti-rabbit Alexa 488). Antibodies can be removed from the plates and plates can be washed with Tris buffered saline with tween 3 times for 5 minutes. Plates can be washed once with DAPI (Chemometec #910-3012) stain diluted 1:5000 (Stock solution of 500 μg/ml) in tris buffered saline with tween for 5 minutes. DAPI stain can be removed and plates can be washed one additional time for 5 minutes with tris buffered saline with tween. Wash can be removed from the plate and 100 μl tris buffered saline with tween can be added back to all wells, Plates can be sealed with Foil seals or black plate seals and plates can be stored at 4° C. until they can be imaged.
# Imaging of the plates can be performed by first locating the nuclei using the DAPI stain. A mask can be created by drawing a circle slightly smaller than each nucleus. Ub-PCNA intensities can be measured for each individual nucleus counted. A histogram of all Ub-PCNA nuclear intensities measured in untreated wells can be generated and a 95% cutoff can be established. This 95% cutoff can be used to determine the number of Positive cells that have Ub-PCNA values higher than the 95% cutoff. The number of positive cells can be expressed as a percentage by dividing by the total number of cells in the well. This percent positive value can be used to graph all data and to determine AC50 values.
# USP1 is a deubiquitinating enzyme that removes ubiquitin from mono-ubiquitinated
# Proliferating Cell Nuclear Antigen (Ub-PCNA). The levels of Ub-PCNA in the nucleus of cells was used to assess the activity of USP1. An immunofluorescence assay was established to monitor Ub-PCNA levels in the ovarian cancer cell line, ES2.
# This assay was performed by first plating 5000 ES2 cells per well in black 96 well plates (Corning #3904) and then incubated overnight at 37° C. and 5% CO2. Compounds, resuspended in DMSO, were added to the cells, to a final DMSO concentration of 0.3%. Plates were incubated at 37° C. and 5% CO2 for 3 hours.
# Cells were then fixed and stained by first removing the media from each plate and fixing the cells with −20° C. methanol for 5 minutes at room temperature. Following fixation plates were washed with Tris buffered saline with tween (Boston Bioproducts ABB-855) 5 times for 5 minutes each. Plates were blocked for 1 hour with 50μ.1 of Odyssey blocking buffer (Licor #327-50000) at room temperature with rocking. […]
# [5] = Liver microsomal metabolic stability, rat liver microsomes (RLM); details: rat, liver microsomes, t1/2 (min) in RLM, 1 μM compound, 1 mg/mL microsomes, NADPH
# [6] = pH 2, aqueous buffer, PBS pH 2.0, 25° C., read-out: Solubility at pH 2.0
# [7] = pH 7.4, aqueous buffer, PBS pH 7.4, 25° C., read-out: Solubility at pH 7.4
SMILES,"solubility at 24 h [1, 6] [µM]","solubility at 24 h [1, 7] [µM]",IC50 [2] [nM],half-life at 1 μM [3] [min],"IC50 ([4]; Homo sapiens, ES-2) [nM]",half-life at 1 μM [5] [min],"Solubility at pH 2.0 (μM) ([1]; PBS pH 2.0, 25° C., 24 hours)","Solubility at pH 7.4 (μM) ([1]; PBS pH 7.4, 25° C., 24 hours)",IC50 [4] [nM]
"CCn1cc(C(F)(F)F)nc1-c1ccc(N[C@@H]2CCCn3nc(-c4c(OC)ncnc4C4CC4)cc32)cc1 (single isomer, unassigned) [Example 243]",≥ 10,< 10,< 100,> 25,100 to 500,> 25,,,
"CCn1cc(C(F)(F)F)nc1-c1ccc(O[C@H]2CCCn3nc(-c4c(OC)ncnc4C4CC4)cc32)cc1F (single isomer, unassigned) [Example 263]",< 10,< 10,< 100,> 25,< 100,> 25,,,
"CCn1cc(C(F)(F)F)nc1-c1ccc(O[C@@H]2CCCn3nc(-c4c(OC)ncnc4C4CC4)cc32)cc1F (single isomer, unassigned) [Example 264]",≥ 10,< 10,< 100,> 25,100 to 500,> 25,,,
"CCn1cc(C(F)(F)F)nc1-c1ccc([C@H](C)N2C(=O)CCn3nc(-c4c(C#N)cnn4C(C)C)cc32)cc1F (single isomer, unassigned) [Example 325]",< 10,< 10,100 to 500,> 25,100 to 500,> 25,,,
"CCn1cc(C(F)(F)F)nc1-c1ccc([C@H](C)n2c(=O)ccn3nc(-c4c(OC)ncnc4C4CC4)cc23)cc1F (single isomer, unassigned) [Example 334]",< 10,< 10,< 100,> 25,100 to 500,> 25,,,
"CCn1cc(C(F)(F)F)nc1-c1ccc(CN2C(=O)[C@H](C)Cn3nc(-c4c(OC)ncnc4C4CC4)nc32)cc1F (single isomer, unassigned) [Example 348]",≥ 10,≥ 10,< 100,> 25,< 100,> 25,,,
"CCn1cc(C(F)(F)F)nc1-c1ccc(CN2C(=O)[C@@H](C)Cn3nc(-c4c(OC)ncnc4C4CC4)nc32)cc1F (single isomer, unassigned) [Example 349]",≥ 10,< 10,< 100,> 25,< 100,> 25,,,
"Cc1cnn(C(C)C)c1-c1cc2n(n1)CCCN2Cc1ccc(-c2nc(C(F)(F)F)cn2C)cc1 [Example 47, 2-(1-isopropyl-4-methyl-1H-pyrazol-5-yl)-4-(4-(1-methyl-4-(trifluoromethyl)-1H-imidazol-2-yl)benzyl)-4,5,6,7-tetrahydropyrazolo[1,5-α]pyrimidine]",,,< 100,,,,++ (“++” indicates 10 μM or greater),+ (“+” indicates less than 10 μM),< 100
CCn1cc(C(F)(F)F)nc1-c1ccc(CN2C(=O)CCn3nc(-c4c(Cl)cnn4C(C)(C)COC)cc32)cc1F [Example 162],≥ 10,≥ 10,< 100,,100 to 500,< 25,,,

# More lines, main results first:
"solubility at 24 h [1, 6] [µM]","solubility at 24 h [1, 7] [µM]",IC50 [2] [nM],half-life at 1 μM [3] [min],"IC50 ([4]; Homo sapiens, ES-2) [nM]",half-life at 1 μM [5] [min],SMILES,"Solubility at pH 2.0 (μM) ([1]; PBS pH 2.0, 25° C., 24 hours)","Solubility at pH 7.4 (μM) ([1]; PBS pH 7.4, 25° C., 24 hours)",IC50 [4] [nM]
≥ 10,≥ 10,< 100,< 25,< 100,< 25,"COc1ncnc(C2CC2)c1-c1cc2n(n1)CCC(C)N2Cc1ccc(-c2nc(C(F)(F)F)cn2C)cc1 (racemic) [Example 48, 2-(4-cyclopropyl-6-methoxypyrimidin-5-yl)-5-methyl-4-(4-(1-methyl-4-(trifluoromethyl)-1H-imidazol-2-yl)benzyl)-4,5,6,7-tetrahydropyrazolo[1,5-α]pyrimidine]",,,
≥ 10,< 10,< 100,< 25,< 100,< 25,"COc1ncnc(C2CC2)c1-c1cc2n(n1)C(C)CCN2Cc1ccc(-c2nc(C(F)(F)F)cn2C)cc1 (racemic) [Example 51, 2-(4-cyclopropyl-6-methoxypyrimidin-5-yl)-7-methyl-4-(4-(1-methyl-4-(trifluoromethyl)-1H-imidazol-2-yl)benzyl)-4,5,6,7-tetrahydropyrazolo[1,5-α]pyrimidine]",,,
≥ 10,< 10,< 100,< 25,< 100,< 25,"CCn1cc(C(F)(F)F)nc1-c1ccc([C@H](C)N2CCCn3nc(-c4c(Cl)cnn4C(C)C)cc32)cc1 (single isomer, unassigned) [Example 67]",,,
< 10,< 10,< 100,< 25,< 100,< 25,"CCn1cc(C(F)(F)F)nc1-c1ccc([C@@H](C)N2CCCn3nc(-c4c(Cl)cnn4C(C)C)cc32)cc1 (single isomer, unassigned) [Example 68]",,,
< 10,< 10,< 100,> 25,< 100,> 25,"CCn1cc(C(F)(F)F)nc1-c1ccc(N[C@@H]2CCCn3nc(-c4c(Cl)cnn4C(C)C)cc32)cc1 (single isomer, unassigned) [Example 238]",,,
< 10,< 10,< 100,> 25,< 100,> 25,"CCn1cc(C(F)(F)F)nc1-c1ccc(N[C@H]2CCCn3nc(-c4c(Cl)cnn4C(C)C)cc32)cc1 (single isomer, unassigned) [Example 239]",,,
< 10,< 10,< 100,> 25,100 to 500,> 25,"CCn1cc(C(F)(F)F)nc1-c1ccc(N[C@H]2CCCn3nc(-c4c(OC)ncnc4C4CC4)cc32)cc1 (single isomer, unassigned) [Example 242]",,,
